Experiments:
[1] = biological target: T1, W. bancrofti iPGM (Wuchereria bancrofti, UniProt B1P0R4); assay: biochemical
T1 sequence (B1P0R4 1-515): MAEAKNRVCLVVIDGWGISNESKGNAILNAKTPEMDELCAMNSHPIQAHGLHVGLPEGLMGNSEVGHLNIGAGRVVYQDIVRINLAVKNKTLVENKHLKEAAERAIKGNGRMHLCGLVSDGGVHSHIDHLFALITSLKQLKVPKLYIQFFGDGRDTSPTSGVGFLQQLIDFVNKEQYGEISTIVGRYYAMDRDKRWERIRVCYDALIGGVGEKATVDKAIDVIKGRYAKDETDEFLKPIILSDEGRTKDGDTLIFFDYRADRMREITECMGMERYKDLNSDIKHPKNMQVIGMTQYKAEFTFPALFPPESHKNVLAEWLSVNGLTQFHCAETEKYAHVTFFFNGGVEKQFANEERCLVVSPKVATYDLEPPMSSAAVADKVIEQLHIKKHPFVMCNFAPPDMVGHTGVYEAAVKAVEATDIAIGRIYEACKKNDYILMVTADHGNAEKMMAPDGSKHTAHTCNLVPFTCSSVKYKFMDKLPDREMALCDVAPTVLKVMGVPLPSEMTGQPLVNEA

[2] = biological target: B. malayi iPGM (Brugia malayi, UniProt Q4VWF8); assay: luminescent coupled-enzyme ATP-quantifying iPGM assay, B. malayi iPGM; format: biochemical
[3] = biological target: T2, C. elegans iPGM (Caenorhabditis elegans, UniProt G5EFZ1); assay: luminescent coupled-enzyme ATP-quantifying iPGM assay, C. elegans iPGM; format: biochemical
T2 sequence (G5EFZ1 1-539): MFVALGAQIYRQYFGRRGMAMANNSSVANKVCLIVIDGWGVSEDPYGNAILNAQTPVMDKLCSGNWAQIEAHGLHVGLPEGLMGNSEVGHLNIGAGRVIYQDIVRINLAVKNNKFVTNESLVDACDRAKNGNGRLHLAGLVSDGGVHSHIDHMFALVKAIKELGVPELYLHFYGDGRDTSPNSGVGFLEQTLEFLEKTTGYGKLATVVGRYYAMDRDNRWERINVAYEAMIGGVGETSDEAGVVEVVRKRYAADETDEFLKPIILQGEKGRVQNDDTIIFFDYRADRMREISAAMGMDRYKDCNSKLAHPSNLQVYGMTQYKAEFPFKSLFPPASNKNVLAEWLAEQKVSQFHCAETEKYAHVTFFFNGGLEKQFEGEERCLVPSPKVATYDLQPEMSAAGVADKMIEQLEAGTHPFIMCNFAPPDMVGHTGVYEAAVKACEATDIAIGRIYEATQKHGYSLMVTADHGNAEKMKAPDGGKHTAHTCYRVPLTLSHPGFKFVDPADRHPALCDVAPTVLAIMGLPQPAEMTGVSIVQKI

[4] = biological target: E. coli iPGM (Escherichia coli, UniProt P37689); assay: luminescent coupled-enzyme ATP-quantifying iPGM assay, E. coli iPGM; format: biochemical
[5] = biological target: T3, H. pylori iPGM (Helicobacter pylori, UniProt B5Z7X6); assay: biochemical
T3 sequence (B5Z7X6 1-491): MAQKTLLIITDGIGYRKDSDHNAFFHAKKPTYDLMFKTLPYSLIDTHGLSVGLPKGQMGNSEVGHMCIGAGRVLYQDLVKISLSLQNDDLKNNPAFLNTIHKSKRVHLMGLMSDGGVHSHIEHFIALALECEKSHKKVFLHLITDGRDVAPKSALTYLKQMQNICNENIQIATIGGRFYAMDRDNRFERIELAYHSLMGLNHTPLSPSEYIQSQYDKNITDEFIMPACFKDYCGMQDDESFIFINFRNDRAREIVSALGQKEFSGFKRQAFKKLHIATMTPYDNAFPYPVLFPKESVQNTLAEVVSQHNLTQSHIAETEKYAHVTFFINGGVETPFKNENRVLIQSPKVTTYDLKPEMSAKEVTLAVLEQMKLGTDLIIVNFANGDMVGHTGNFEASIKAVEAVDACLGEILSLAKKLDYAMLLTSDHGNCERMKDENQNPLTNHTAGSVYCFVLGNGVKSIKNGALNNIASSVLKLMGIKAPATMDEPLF

Chain of B. malayi iPGM (Q4VWF8 whole entry): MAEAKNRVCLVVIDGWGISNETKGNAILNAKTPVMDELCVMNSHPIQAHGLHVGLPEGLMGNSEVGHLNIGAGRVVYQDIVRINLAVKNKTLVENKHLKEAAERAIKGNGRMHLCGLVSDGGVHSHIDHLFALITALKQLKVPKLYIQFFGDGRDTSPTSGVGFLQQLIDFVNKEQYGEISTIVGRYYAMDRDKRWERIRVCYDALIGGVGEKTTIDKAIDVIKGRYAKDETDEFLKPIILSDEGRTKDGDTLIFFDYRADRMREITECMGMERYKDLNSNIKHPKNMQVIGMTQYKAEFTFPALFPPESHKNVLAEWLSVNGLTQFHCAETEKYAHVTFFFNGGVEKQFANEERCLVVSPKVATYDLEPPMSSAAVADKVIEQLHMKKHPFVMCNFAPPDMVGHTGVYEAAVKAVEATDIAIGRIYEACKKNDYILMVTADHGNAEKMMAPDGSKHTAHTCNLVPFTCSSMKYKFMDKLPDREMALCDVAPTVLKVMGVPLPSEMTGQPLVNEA
Chain of E. coli iPGM (P37689 whole entry): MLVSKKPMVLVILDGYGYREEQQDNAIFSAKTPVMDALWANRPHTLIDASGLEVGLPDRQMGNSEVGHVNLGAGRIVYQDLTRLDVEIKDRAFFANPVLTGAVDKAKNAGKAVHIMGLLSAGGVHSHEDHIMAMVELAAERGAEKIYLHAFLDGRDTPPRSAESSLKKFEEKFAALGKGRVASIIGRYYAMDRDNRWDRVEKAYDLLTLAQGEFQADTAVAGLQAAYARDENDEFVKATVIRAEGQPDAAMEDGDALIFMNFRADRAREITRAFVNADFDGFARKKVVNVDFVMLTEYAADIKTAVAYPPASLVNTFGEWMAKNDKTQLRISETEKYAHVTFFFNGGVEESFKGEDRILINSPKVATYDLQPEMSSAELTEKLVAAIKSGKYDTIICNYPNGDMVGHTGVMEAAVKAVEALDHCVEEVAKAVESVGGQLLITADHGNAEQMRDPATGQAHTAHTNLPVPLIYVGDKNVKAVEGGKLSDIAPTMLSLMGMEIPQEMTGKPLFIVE

Question: Which results are given for `CC(C)C[C@H](NC(=O)[C@H](Cc1ccc(O)cc1)NC(=O)[C@@H]1CSCC(=O)N[C@H](Cc2ccc(O)cc2)C(=O)N[C@@H](CC(=O)O)C(=O)N[C@@H](Cc2ccc(O)cc2)C(=O)N2CCC[C@H]2C(=O)NCC(=O)N[C@@H](CC(=O)O)C(=O)N[C@@H](Cc2ccc(O)cc2)C(=O)N1)C(=O)N[C@@H](Cc1ccc(O)cc1)C(=O)NCC(=O)N[C@H](C(=O)N[C@@H](CS)C(N)=O)[C@@H](C)O` [Ce-2]?
Answer: AC50 [1]: 2.34 nM; AC50 [2]: 2.69 nM; AC50 [3]: 2.45 nM; AC50 [4]: 316 nM; AC50 [5]: 3630 nM

Source: paper PMC9900472 (ACS chemical biology, 2022)
